Test results as given in patent US9216991B2 (Ares Trading S.A., priority 2012, dated 2015).

The compounds below were run against T1, IRAK4 (Homo sapiens, UniProt Q9NWZ3) (assay: IRAK4 Enzymatic Assay). Conditions: His-TEV-IRAK4 20 ng/well, ATP 2 μM, STK1-biotin peptide 300 nM, 3 hours at 30° C., FlashPlate radioactivity.
T1 construct: His (N); TEV cleavage site (N)
T1 sequence (Q9NWZ3 1-460): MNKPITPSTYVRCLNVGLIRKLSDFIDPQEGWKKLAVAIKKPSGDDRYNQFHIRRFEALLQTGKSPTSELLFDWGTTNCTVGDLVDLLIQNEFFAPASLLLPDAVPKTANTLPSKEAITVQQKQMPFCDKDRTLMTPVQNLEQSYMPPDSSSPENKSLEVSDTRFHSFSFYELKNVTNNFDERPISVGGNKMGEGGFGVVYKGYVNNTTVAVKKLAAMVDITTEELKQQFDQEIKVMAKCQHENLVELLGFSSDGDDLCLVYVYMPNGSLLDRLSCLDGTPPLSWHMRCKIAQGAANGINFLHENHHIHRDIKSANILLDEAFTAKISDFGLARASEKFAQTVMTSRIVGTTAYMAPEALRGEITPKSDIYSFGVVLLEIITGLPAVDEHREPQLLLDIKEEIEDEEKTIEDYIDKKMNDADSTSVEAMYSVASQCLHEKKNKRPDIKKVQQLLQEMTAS
Assay type: biochemical
In short: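 Recombinant His-TEV-tagged IRAK4 (20 ng/well) phosphorylates biotinylated STK1 peptide (300 nM) with 2 μM ATP plus [^33P]ATP, 3 h at 30 °C in pH 7.0 HEPES buffer with MgCl2 and MnCl2; compounds tested 20 μM to 1 nM. Reaction stopped with EDTA; incorporated radioactivity counted on streptavidin FlashPlates.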
`Cn1cc(-c2cccc(-c3ncc(-c4cnn(C5CCN(C(=O)CC(F)(F)F)CC5)c4)cn3)c2)cn1` [Example 114, 3,3,3-Trifluoro-1-[4-(4-{2-[3-(1-methyl-1H-pyrazol-4-yl)-phenyl]-pyrimidin-5-yl}-pyrazol-1-yl)-piperidin-1-yl]-propan-1-one] was tested, and the IC50 was 0.1 to 1 µM.
`Cn1cc(-c2cccc(-c3ncc(-c4cnn(C5CCN(C(=O)C(O)C(F)(F)F)CC5)c4)cn3)c2)cn1` (centres unmarked) [Example 115, 3,3,3-Trifluoro-2-hydroxy-1-[4-(4-{2-[3-(1-methyl-1H-pyrazol-4-yl)-phenyl]-pyrimidin-5-yl}-pyrazol-1-yl)-piperidin-1-yl]-propan-1-one] gave an IC50 of 0.1 to 1 µM.
`Cn1cc(-c2cccc(-c3ncc(-c4cnn([C@@H]5CCNC5)c4)cn3)c2)cn1` [Example 116, 2-[3-(1-Methyl-1H-pyrazol-4-yl)-phenyl]-5-((R)-1-pyrrolidin-3-yl-1H-pyrazol-4-yl)-pyrimidine] showed an IC50 of 0.1 to 1 µM.
`Cn1cc(-c2cccc(-c3ncc(-c4cnn(C5CCN(C(=O)C6CC(=O)C6)CC5)c4)cn3)c2)cn1` [Example 117, 3-[4-(4-{2-[3-(1-Methyl-1H-pyrazol-4-yl)-phenyl]-pyrimidin-5-yl}-pyrazol-1-yl)-piperidine-1-carbonyl]-cyclobutanone] was tested, and the IC50 was 0.1 to 1 µM.
Compound `Cn1cc(-c2cccc(-c3ncc(-c4cnn(C5C[C@H]6CC[C@@H](C5)N6CC(O)C(F)(F)F)c4)cn3)c2)cn1` (stereo partly drawn) [Example 118, 1,1,1-Trifluoro-3-[(1R,5S)-3-(4-{2-[3-(1-methyl-1H-pyrazol-4-yl)-phenyl]-pyrimidin-5-yl}-pyrazol-1-yl)-8-aza-bicyclo[3.2.1]oct-8-yl]-propan-2-ol] has an IC50 of 0.1 to 1 µM.
Compound `CC(=O)N1[C@@H]2CC[C@H]1CC(n1cc(-c3cnc(-c4cccc(-c5cnn(C)c5)c4)nc3)cn1)C2` (stereo partly drawn) [Example 119, 1-[(1R,5S)-3-(4-{2-[3-(1-Methyl-1H-pyrazol-4-yl)-phenyl]-pyrimidin-5-yl}-pyrazol-1-yl)-8-aza-bicyclo[3.2.1]oct-8-yl]-ethanone] has an IC50 of 0.1 to 1 µM.
For `Cn1cc(-c2cccc(-c3ncc(-c4cnn(C5CCN(C(=O)C6CC(O)C6)CC5)c4)cn3)c2)cn1` (centres unmarked) [Example 120, (3-Hydroxy-cyclobutyl)-[4-(4-{2-[3-(1-methyl-1H-pyrazol-4-yl)-phenyl]-pyrimidin-5-yl}-pyrazol-1-yl)-piperidin-1-yl]-methanone], the IC50 was 0.1 to 1 µM.
With `CO[C@@H]1COCCC1N1CCC(n2cc(-c3cnc(-c4cccc(-c5cnn(C)c5)c4)nc3)cn2)CC1` (stereo partly drawn) [Example 122, 5-{1-[1-((S)-3-Methoxy-tetrahydro-pyran-4-yl)-piperidin-4-yl]-1H-pyrazol-4-yl}-2-[3-(1-methyl-1H-pyrazol-4-yl)-phenyl]-pyrimidine] the IC50 was 0.1 to 1 µM.
Compound `CN1CCC[C@H]1C(=O)N1CCC(n2cc(-c3cnc(-c4cccc(-c5cnn(C)c5)c4)nc3)cn2)CC1` [Example 123, [4-(4-{2-[3-(1-Methyl-1H-pyrazol-4-yl)-phenyl]-pyrimidin-5-yl}-pyrazol-1-yl)-piperidin-1-yl]-((S)-1-methyl-pyrrolidin-2-yl)-methanone] has an IC50 of 0.1 to 1 µM.
Work on `CC(C)[C@H](N)C(=O)N1CCC(n2cc(-c3cnc(-c4cccc(-c5cnn(C)c5)c4)nc3)cn2)CC1` [Example 124, (S)-2-Amino-3-methyl-1-[4-(4-{2-[3-(1-methyl-1H-pyrazol-4-yl)-phenyl]-pyrimidin-5-yl}-pyrazol-1-yl)-piperidin-1-yl]-butan-1-one] yielded an IC50 of 0.1 to 1 µM.
Work on `Cn1cc(-c2cccc(-c3ncc(-c4cnn([C@H]5CCNC5)c4)cn3)c2)cn1` [Example 125, 2-[3-(1-Methyl-1H-pyrazol-4-yl)-phenyl]-5-((S)-1-pyrrolidin-3-yl-1H-pyrazol-4-yl)-pyrimidine] yielded an IC50 of 0.1 to 1 µM.
In the case of `CC(=O)N1CC[C@H](n2cc(-c3cnc(-c4cccc(-c5cnn(C)c5)c4)nc3)cn2)C1` [Example 126, 1-[(S)-3-(4-{2-[3-(1-Methyl-1H-pyrazol-4-yl)-phenyl]-pyrimidin-5-yl}-pyrazol-1-yl)-pyrrolidin-1-yl]-ethanone], the IC50 is reported as 0.1 to 1 µM.
In the case of `Cn1cc(-c2cccc(-c3ncc(-c4cnn(CC(=O)N5C6CCC5CC(O)C6)c4)cn3)c2)cn1` (centres unmarked) [Example 127, 1-(3-Hydroxy-8-aza-bicyclo[3.2.1]oct-8-yl)-2-(4-{2-[3-(1-methyl-1H-pyrazol-4-yl)-phenyl]-pyrimidin-5-yl}-pyrazol-1-yl)-ethanone], the IC50 is reported as 0.1 to 1 µM.
`Cn1cc(-c2cccc(-c3ncc(-c4cnn(CC(=O)N5C6CCC5CC(O)C6)c4)cn3)c2)cn1` (centres unmarked) [Example 128, 1-(3-Hydroxy-8-aza-bicyclo[3.2.1]oct-8-yl)-2-(4-{2-[3-(1-methyl-1H-pyrazol-4-yl)-phenyl]-pyrimidin-5-yl}-pyrazol-1-yl)-ethanone] showed an IC50 of 0.1 to 1 µM.
`Cn1cc(-c2cccc(-c3ncc(-c4cnn(C5CCOC5=O)c4)cn3)c2)cn1` (centres unmarked) [Example 129, 3-(4-{2-[3-(1-Methyl-1H-pyrazol-4-yl)-phenyl]-pyrimidin-5-yl}-pyrazol-1-yl)-dihydro-furan-2-one] showed an IC50 of 0.1 to 1 µM.
In the case of `CC(=O)N1CC[C@@H](n2cc(-c3cnc(-c4cccc(-c5cnn(C)c5)c4)nc3)cn2)C1` [Example 130, 1-[(R)-3-(4-{2-[3-(1-Methyl-1H-pyrazol-4-yl)-phenyl]-pyrimidin-5-yl}-pyrazol-1-yl)-pyrrolidin-1-yl]-ethanone], the IC50 is reported as 1 to 5 µM.
For `Cn1cc(-c2cccc(-c3ncc(-c4cnn(CCC5CCOC5)c4)cn3)c2)cn1` (centres unmarked) [Example 131, 2-[3-(1-Methyl-1H-pyrazol-4-yl)-phenyl]-5-{1-[2-(tetrahydro-furan-3-yl)-ethyl]-1H-pyrazol-4-yl}-pyrimidine], the IC50 was 0.1 to 1 µM.
`Cn1cc(-c2cccc(-c3ncc(-c4cnn(CCC5CCOC5=O)c4)cn3)c2)cn1` (centres unmarked) [Example 132, 3-[2-(4-{2-[3-(1-Methyl-1H-pyrazol-4-yl)-phenyl]-pyrimidin-5-yl}-pyrazol-1-yl)-ethyl]dihydro-furan-2-one] showed an IC50 of 0.1 to 1 µM.
With `CC(C)N1C2CCCC1CC(n1cc(-c3cnc(-c4cccc(-c5cnn(C)c5)c4)nc3)cn1)C2` (centres unmarked) [Example 133, 9-Isopropyl-3-(4-{2-[3-(1-methyl-1H-pyrazol-4-yl)-phenyl]-pyrimidin-5-yl}-pyrazol-1-yl)-9-aza-bicyclo[3.3.1]nonane] the IC50 was 0.1 to 1 µM.
With `CN(C)C(=O)[C@H]1CC[C@H](n2cc(-c3cnc(-c4cccc(-c5cnn(C)c5)c4)nc3)cn2)CC1` [Example 134, Trans-4-(4-{2-[3-(1-Methyl-1H-pyrazol-4-yl)-phenyl]-pyrimidin-5-yl}-pyrazol-1-yl)-cyclohexanecarboxylic acid dimethylamide] the IC50 was < 0.1 µM.
`CN(C)C(=O)[C@H]1CC[C@@H](n2cc(-c3cnc(-c4cccc(-c5cnn(C)c5)c4)nc3)cn2)CC1` [Example 135, Cis-4-(4-{2-[3-(1-Methyl-1H-pyrazol-4-yl)-phenyl]-pyrimidin-5-yl}-pyrazol-1-yl)-cyclohexanecarboxylic acid dimethylamide] was tested, and the IC50 was 0.1 to 1 µM.
Work on `Nc1cc(-c2cccc(-c3ncc(-c4cnn(C5CCOCC5)c4)cn3)c2)ccn1` [Example 136, 4-(3-{5-[1-(Tetrahydro-pyran-4-yl)-1H-pyrazol-4-yl]-pyrimidin-2-yl}-phenyl)-pyridin-2-ylamine] yielded an IC50 of 0.1 to 1 µM.
`Cn1cc(-c2cccc(-c3ncc(-c4cn(C5CCOCC5)nc4C(N)=O)cn3)c2)cn1` [Example 137, 4-{2-[3-(1-Methyl-1H-pyrazol-4-yl)-phenyl]-pyrimidin-5-yl}-1-(tetrahydro-pyran-4-yl)-1H-pyrazole-3-carboxylic acid amide] gave an IC50 of 1 to 5 µM.
